Laboratory results published in patent US10517889B2, “Modulators of SMAD7 expression” (Ionis Pharmaceuticals, Inc., priority 2017, dated 2019).
pIC50: −log10 of the molar value. “And” between values parts separate entries of the source, which are not always exact repeats. Equal entries are not always repeated. Strand notation (5' to 3'): a small letter for the sugar, then the base; units joined by * are phosphorothioate-linked, units joined directly phosphodiester-linked; [ ] holds rarer units or linkages, { } end groups; capitals alone tell only the bases. k = constrained ethyl (cEt); [5mC] = 5-methylcytosine; d = 2'-deoxy (DNA)

What was measured:
human SMAD7 mRNA [1] = assay: Dose-dependent inhibition of human SMAD7 mRNA expression in Hep3B cells (Example 3, Study 1 and 2); type: cell-based; details: electroporation; for % inhibition of SMAD7 mRNA expression: approximately 16 hours; for pIC50: Study 2 (740-20000 nM)
Description: The antisense oligonucleotides were tested in a series of experiments that had similar culture conditions as described below.
(§1) Cells were plated at a density of 20,000 cells per well and transfected using electroporation with 0.31 μM, 1.25 μM, 5.00 μM, or 20.00 μM concentrations of antisense oligonucleotide, as specified in the Tables below. ION 483663 was included in the assays for comparison. After a treatment period of approximately 16 hours, RNA was isolated from the cells and SMAD7 mRNA levels were measured by quantitative real-time PCR. Primer probe set RTS5062 was used to measure human SMAD7 mRNA levels. SMAD7 mRNA levels were adjusted according to total RNA content, as measured by RIBOGREEN®. Results are presented as percent inhibition of SMAD7 mRNA expression, relative to untreated control cells.
The half maximal inhibitory concentration (IC50) of each oligonucleotide is also presented.
as §1, with “0.74” for “0.31”, “2.22” for “1.25”, “6.67” for “5.00”, “below.” for “below. ION 483663 was included in the assays for comparison.”

human SMAD7 mRNA [2] = assay: Antisense inhibition of human SMAD7 mRNA expression in Hep3B cells by 3-10-3 cEt gapmers, 10,000 nM, electroporation (Example 2); type: cell-based; details: approximately 24 hours
In short: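 qRT-PCR (RTS5062) of SMAD7 mRNA, normalised to RIBOGREEN total RNA, gave percent inhibition relative to untreated controls. Hep3B cells at 20,000 per well received 10,000 nM oligonucleotide by electroporation, with ~24 h treatment.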

[3] = 740 nM, Study 2, relative to untreated control cells
[4] = Hep3B cells, 10,000 nM antisense oligonucleotide, electroporation, RT-PCR primer probe set RTS5062, relative to untreated control cells
[5] = Hep3B cells, electroporation with 10,000 nM antisense oligonucleotide, primer probe set RTS5062, relative to untreated control cells
[6] = SMAD7 mRNA, Hep3B cells, 10,000 nM antisense oligonucleotide, electroporation, primer probe set RTS5062, relative to untreated control cells
[7] = Hep3B cells, electroporation with 10,000 nM antisense oligonucleotide, RTS5062, percent inhibition of SMAD7 mRNA relative to untreated control cells
[8] = Hep3B cells, electroporation with 10,000 nM antisense oligonucleotide, SMAD7 mRNA by RT-PCR (RTS5062), relative to untreated control cells

Substance | % inhibition of SMAD7 mRNA expression (human SMAD7 mRNA [1]; [3]) [%] | % inhibition of SMAD7 mRNA expression (human SMAD7 mRNA [1]; 2220 nM, Study 2) | % inhibition of SMAD7 mRNA expression (human SMAD7 mRNA [1]; 6670.0 nM, Study 2) | % inhibition of SMAD7 mRNA expression (human SMAD7 mRNA [1]; 20000.0 nM, Study 2) | pIC50 (human SMAD7 mRNA [1]) | % Inhibition (human SMAD7 mRNA [2]; [4]) [%] | % Inhibition (human SMAD7 mRNA [2]; [5]) [%] | % inhibition of SMAD7 mRNA expression (human SMAD7 mRNA [2]; [5]) [%] | % Inhibition (human SMAD7 mRNA [2]; [6]) [%] | % Inhibition (human SMAD7 mRNA [2]; [7]) [%] | % inhibition of SMAD7 mRNA expression (human SMAD7 mRNA [2]; Hep3B cells, electroporation, 10,000 nM antisense oligonucleotide, RTS5062, relative to untreated control cells) [%] | % Inhibition (human SMAD7 mRNA [2]; [8]) [%]
798824 (kG*kA*k[5mC]*dA*d[5mC]*dA*dG*dT*dA*dG*dA*dG*d[5mC]*k[5mC]*kT*k[5mC]; antisense) [compound 798824] | 0 | 0% | 7% | 42% | 5.40 | 74 | – | – | – | – | – | –
798931 (antisense kG*kA*kG*dG*dA*dA*dA*dA*dT*dA*dT*dT*dA*kG*k[5mC]*kA) [compound 798931] | 0 | 43% | 72% | 83% | 5.15 | 69 | – | – | – | – | – | –
798954 (antisense kA*kT*kA*dA*dG*d[5mC]*dT*dA*dT*dT*dT*d[5mC]*dT*k[5mC]*kA*kA) [compound 798954] | 4 | 27% | 49% | 70% | < 4.70 | – | 54 | – | – | – | – | –
798987 (antisense kA*kA*kT*dG*dA*dT*dG*dA*d[5mC]*d[5mC]*dG*d[5mC]*d[5mC]*k[5mC]*k[5mC]*k[5mC]) [compound 798987] | 0 | 0% | 8% | 47% | 5.40 | – | – | 84 | – | – | – | –
799067 (antisense kG*kG*kA*dT*dG*dA*dA*dA*dA*dT*dA*dA*dT*kT*kG*kG) [compound 799067] | 5 | 55% | 63% | 78% | 5.05 | – | – | 74 | – | – | – | –
799070 (antisense kA*kG*kG*dG*dA*dA*dT*dA*dA*dG*dA*d[5mC]*dA*kA*kG*kG) [compound 799070] | 0 | 44% | 42% | 60% | 5.40 | – | – | 67 | – | – | – | –
799089 (antisense kA*kG*k[5mC]*dA*dA*dT*dA*d[5mC]*dT*dG*dT*dG*dA*kG*kG*kG) [compound 799089] | 12 | 40% | 61% | 76% | 5.15 | – | – | 60 | – | – | – | –
799118 (antisense kA*kG*kA*dG*d[5mC]*dT*dT*dA*dA*d[5mC]*dA*d[5mC]*dA*k[5mC]*kA*kG) [compound 799118] | 0 | 16% | 50% | 75% | > 6.15 | – | 71 | – | – | – | – | –
799143 (antisense kT*kG*kG*dG*dT*dT*dA*dT*dG*dA*d[5mC]*dG*dG*kA*k[5mC]*k[5mC]) [compound 799143] | 87 | 93% | 95% | 96% | 5.70 | – | – | 66 | 61 | – | – | –
799159 (antisense kG*kT*kG*dT*dA*dT*dG*dA*dG*dT*dT*dG*dT*kA*kG*kA) [compound 799159] | 43 | 55% | 78% | 90% | 4.72 | – | 56 | – | – | – | – | –
799168 (antisense kG*k[5mC]*kT*dA*dA*dG*dA*dA*d[5mC]*dA*dG*dT*dG*kT*k[5mC]*kG) [compound 799168] | 15 | 13% | 36% | 54% | 5.30 | – | – | 75 | – | – | – | –
799312 (antisense k[5mC]*kA*kT*d[5mC]*dT*dT*dT*dA*dA*dG*d[5mC]*dA*d[5mC]*kG*k[5mC]*kT) [compound 799312] | 23 | 46% | 49% | 69% | 5.40 | – | – | – | – | 66 | – | –
799318 (antisense kG*kT*kG*dG*dA*dT*dT*dT*dG*dA*dA*dA*dA*kG*kG*kG) [compound 799318] | 12 | 40% | 70% | 75% | 4.96 | – | – | – | – | 58 | – | –
799321 (antisense kA*kT*k[5mC]*dT*dG*dG*dA*d[5mC]*dA*dG*dT*d[5mC]*dT*kG*k[5mC]*kT) [compound 799321] | 0 | 5% | 36% | 67% | > 6.15 | – | – | – | – | – | 93 | –
799322 (antisense kG*kG*kA*dG*dG*dG*dT*dA*dT*dG*d[5mC]*dA*d[5mC]*kA*k[5mC]*kT) [compound 799322] | 89 | 90% | 96% | 96% | 5.70 | – | – | 83 | – | – | – | –
799364 (kT*k[5mC]*k[5mC]*dG*dA*dG*dT*dT*dA*dT*d[5mC]*d[5mC]*d[5mC]*k[5mC]*kA*kT; antisense) [compound 799364] | 39 | 54% | 67% | 88% | 5.52 | – | – | 73 | – | – | – | –
799365 (k[5mC]*kT*k[5mC]*d[5mC]*dG*dA*dG*dT*dT*dA*dT*d[5mC]*d[5mC]*k[5mC]*k[5mC]*kA; antisense) [compound 799365] | 11 | 39% | 73% | 94% | 5.40 | – | – | 61 | – | – | – | –
799366 (antisense kT*k[5mC]*kT*d[5mC]*d[5mC]*dG*dA*dG*dT*dT*dA*dT*d[5mC]*k[5mC]*k[5mC]*k[5mC]) [compound 799366] | 18 | 39% | 64% | 76% | 5.10 | – | – | 70 | – | – | – | –
799369 (antisense kA*k[5mC]*kT*d[5mC]*dA*d[5mC]*dT*dA*dA*dG*dT*d[5mC]*dT*k[5mC]*k[5mC]*kG) [compound 799369] | 1 | 10% | 46% | 74% | 5.22 | – | – | – | – | – | – | 50
799382 (antisense kA*k[5mC]*kT*dT*dT*dT*dA*dG*d[5mC]*dA*dA*dA*d[5mC]*kA*kG*kA) [compound 799382] | 0 | 36% | 56% | 75% | 5.52 | – | – | 82 | – | – | – | –
799396 (antisense kT*kG*kT*dT*dA*d[5mC]*dA*dA*dA*dT*dA*d[5mC]*dA*kG*kA*kG) [compound 799396] | – | 52% and 38% | 72% and 70% | 78% and 85% | – | – | – | – | 66 | – | – | 69
